Reference: PubChem BioAssay (NCI)
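Abbreviation: GI50, concentration required for 50% inhibition of growth. TGI marks complete inhibition of growth.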

Columns and labels:
Assay in all cases: NCI-60 cell line screen, 384-well format
[1] = system: BT-549 breast
[2] = system: OVCAR-4 ovarian
[3] = system: OVCAR-3 ovarian
[4] = system: MCF7 breast
[5] = system: M14 melanoma
[6] = system: HOP-92 NSCLC
[7] = system: SF-268 CNS
[8] = system: UO-31 renal
[9] = system: KM12 colon
[10] = system: ACHN renal
[11] = system: SF-295 CNS
[12] = system: DU-145 prostate
[13] = system: UACC-257 melanoma
[14] = system: MDA-MB-435 melanoma
[15] = system: HCT-116 colon
[16] = system: NCI-H460 NSCLC
[17] = system: A498 renal
[18] = system: HS 578T breast
[19] = system: SK-OV-3 ovarian
[20] = system: HL-60(TB) leukemia
[21] = system: MALME-3M melanoma
[22] = system: NCI-H226 lung
[23] = system: LOX IMVI melanoma
[24] = system: MOLT-4 leukemia
[25] = system: NCI/ADR-RES ovarian
[26] = system: OVCAR-8 ovarian
[27] = system: U251 glioblastoma
[28] = system: SW-620 colon
[29] = system: MDA-MB-231 breast
[30] = system: UACC-62 melanoma
[31] = system: 786-0 renal
[32] = system: RXF 393 renal
[33] = system: SF-539 CNS
[34] = system: SNB-75 CNS
[35] = system: PC-3 prostate
[36] = system: NCI-H23 lung
[37] = system: HCC-2998 colon
[38] = system: NCI-H522 lung
[39] = system: SNB-19 CNS
[40] = system: SK-MEL-28 melanoma
[41] = system: COLO 205 colon
[42] = system: TK-10 renal
[43] = system: NCI-H322M lung
[44] = system: T-47D breast
[45] = system: A549 NSCLC
[46] = system: HT29 colon
[47] = system: SN12C renal
[48] = system: HCT-15 colon
[49] = system: CAKI-1 renal
[50] = system: EKVX NSCLC
[51] = system: HOP-62 NSCLC
[52] = system: IGROV1 ovarian
[53] = system: OVCAR-5 ovarian
[54] = system: SK-MEL-5 melanoma
[55] = system: SR leukemia
[56] = system: MDA-MB-468 breast
[57] = system: RPMI-8226 leukemia

## Cc1ccc(C(=O)Nc2ccc(CN3CCN(C)CC3)c(C(F)(F)F)c2)cc1C#Cc1cnc2cccnn12
[1]
  GI50: 309 nM
  TGI: 1000 nM
[2]
  GI50: 538 nM
  TGI: 1820 nM
[3]
  GI50: 374 nM
  TGI: 1370 nM
[4]
  GI50: 560 nM
  TGI: 1830 nM
[5]
  GI50: 167 nM
  TGI: 573 nM
[6]
  GI50: 249 nM
  TGI: 580 nM
[7]
  GI50: 222 nM
  TGI: 844 nM
[8]
  GI50: 392 nM
  TGI: 1150 nM
[9]
  GI50: 46 nM
  TGI: 1380 nM
[10]
  GI50: 210 nM
  TGI: 685 nM
[11]
  GI50: 1080 nM
  TGI: 2270 nM
[12]
  GI50: 345 nM
  TGI: 1190 nM
[13]
  GI50: 222 nM
  TGI: 419 nM
[14]
  GI50: 425 nM
  TGI: 1340 nM
[15]
  GI50: 193 nM
  TGI: 541 nM
[16]
  GI50: 396 nM
  TGI: 1510 nM
[17]
  GI50: 390 nM
  TGI: 1310 nM
[18]
  GI50: 107 nM
  TGI: 290 nM
[19]
  GI50: 297 nM
  TGI: 1210 nM
[20]
  GI50: 163 nM
  TGI: 320 nM
[21]
  GI50: 104 nM
  TGI: 226 nM
[22]
  GI50: 47.6 nM
  TGI: 240 nM
[23]
  GI50: 153 nM
  TGI: 307 nM
[24]
  GI50: 203 nM
  TGI: 619 nM
[25]
  GI50: 315 nM
  TGI: 1000 nM
[26]
  GI50: 344 nM
  TGI: 1220 nM
[27]
  GI50: 492 nM
  TGI: 1610 nM
[28]
  GI50: 399 nM
  TGI: 1480 nM
[29]
  GI50: 171 nM
  TGI: 399 nM
[30]
  GI50: 144 nM
  TGI: 745 nM
[31]
  GI50: 339 nM
  TGI: 1060 nM
[32]
  GI50: 284 nM
  TGI: 621 nM
[33]
  GI50: 109 nM
  TGI: 245 nM
[34]
  GI50: 217 nM
  TGI: 790 nM
[35]
  GI50: 872 nM
  TGI: 2070 nM
[36]
  GI50: 246 nM
  TGI: 797 nM
[37]
  GI50: 500 nM
  TGI: 1290 nM
[38]
  GI50: 147 nM
  TGI: 582 nM
[39]
  GI50: 1270 nM
  TGI: 2560 nM
[40]
  GI50: 362 nM
  TGI: 1270 nM
[41]
  GI50: 348 nM
  TGI: 1440 nM
[42]
  GI50: 737 nM
  TGI: 1970 nM
[43]
  GI50: 275 nM
  TGI: 692 nM
[44]
  GI50: 608 nM
  TGI: 1810 nM
[45]
  GI50: 361 nM
  TGI: 1250 nM
[46]
  GI50: 221 nM
  TGI: 607 nM
[47]
  GI50: 324 nM
  TGI: 1100 nM
[48]
  GI50: 265 nM
  TGI: 1020 nM
[49]
  GI50: 210 nM
  TGI: 504 nM
[50]
  GI50: 574 nM
  TGI: 1780 nM
[51]
  GI50: 403 nM
  TGI: 1380 nM
[52]
  GI50: 180 nM
  TGI: 558 nM
[53]
  GI50: 516 nM
  TGI: 1680 nM
[54]
  GI50: 170 nM
  TGI: 373 nM
[55]
  GI50: 521 nM
  TGI: 801 nM
[56]
  GI50: 563 nM
  TGI: 1580 nM
[57]
  GI50: 288 nM
  TGI: 760 nM
